Experimental data published in patent US20150175599A1, “FAAH Inhibitors” (Ironwood Pharmaceuticals, Inc., priority 2010, published 2015).

Key:
FAAH = molecular target: T1, FAAH (Homo sapiens, UniProt O00519); experiment: FAAH inhibition, human brain membrane homogenate assay; format: biochemical; details: human brain homogenate; average activity; read-out: Human brain Extract FAAH IC50
T1 construct: Reactions were initiated by adding 12.5 μg of brain microsome; tissue ABS, Inc; host or cells: human brain cerebral cortex, membrane/microsome fraction pooled from 3 donors
T1 sequence (O00519 1-579): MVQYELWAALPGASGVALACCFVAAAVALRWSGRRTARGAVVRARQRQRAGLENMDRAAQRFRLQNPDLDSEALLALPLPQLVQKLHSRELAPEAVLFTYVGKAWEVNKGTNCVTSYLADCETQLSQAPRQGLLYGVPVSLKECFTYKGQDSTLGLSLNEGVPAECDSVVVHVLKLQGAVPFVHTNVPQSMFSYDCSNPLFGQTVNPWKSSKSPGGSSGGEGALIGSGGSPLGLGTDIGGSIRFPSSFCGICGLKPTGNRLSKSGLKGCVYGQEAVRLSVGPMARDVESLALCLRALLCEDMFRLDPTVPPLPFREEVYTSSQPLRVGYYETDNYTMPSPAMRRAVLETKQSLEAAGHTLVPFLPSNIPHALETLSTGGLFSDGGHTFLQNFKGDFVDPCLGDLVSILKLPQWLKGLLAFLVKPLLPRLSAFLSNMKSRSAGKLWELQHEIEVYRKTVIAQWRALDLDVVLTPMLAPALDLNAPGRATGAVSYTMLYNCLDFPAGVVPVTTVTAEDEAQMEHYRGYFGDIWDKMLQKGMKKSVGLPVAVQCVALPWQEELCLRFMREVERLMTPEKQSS

hERG channel = molecular target: T2, hERG channel (Homo sapiens, UniProt Q12809); experiment: hERG channel inhibition, automated patch clamp (IonWorks HT, hERG-CHO); format: cell-based; details: CHO cells expressing hERG, 600 s incubation; for inhibition at 600 s, 1 µM: 1 μM compound, read-out: hERG Channel Inhibition % (at 1 μM), vehicle-subtracted values; for inhibition at 600 s, 10 µM: 10 μM compound, read-out: hERG Channel Inhibition % (at 10 μM), vehicle-subtracted values
T2 construct: expressed in transfected cells; host or cells: CHO (hERG-CHO), under Geneticin selection
Procedure: Human ether-a-gogo-related (hERG) ion channel encodes the inward rectifying voltage gated potassium channel in the heart and has a major role during the repolarization of the cardiac action potential. It is well established that blockade of this ion channel can lead to potentially lethal arrhythmias. hERG pre-clinical safety data is often used by regulatory agencies in elucidate the toxicity profile of certain compositions. The disclosed compounds of Table 1 were tested for their ability to inhibit hERG ion channels.
Media components include F12 Nutrient Mixture (Ham) with GlutaMAX™ (Invitrogen, Cat#31765), Fetal Bovine Serum, Certified (Invitrogen, Cat#16000-044—not heat activated), and Geneticin® Selective Antibiotic (Invitrogen, Cat#10131-027).
One vial of frozen cells, at 1.62×10^6 cells are thawed into a T150 flask (BD Falcon 355001) with 40 mL of pre-warmed complete media. Cells are cultured at 37° C., 5% CO2 for four hours prior to gently changing media. 99% of cells appear attached at this time point.
The flask is media changed at 24 hours post-thaw, the cells are imaged, media changed, and returned to the incubator. At this point, the cells appear healthy and about 25% confluent in the flask. Cells are typically passed 24-48 hours after thaw according to the following intervals and densities below. Cells are incubated at 30° C. for 48 hours prior to assay.
Using an automated patch clamp apparatus (IonWorks^HT), a three pulse protocol was applied by stepping from a holding potential of −80 mV to […] for 2 s, to activate hERG channels. The membrane voltage was then stepped back to −50 mV for 2 s to evoke a tail current prior to returning to the holding potential for 1 s. This sequence was repeated a further two times. This voltage protocol was applied prior to drug (Pre compound) and after 600 s in the presence of drug (Post compound).
The amplitude of the hERG tail current was calculated by measuring the difference between the maximum current on stepping to −50 mV of the third pulse (i.e. peak of the outward hERG tail current) and the current measured immediately prior to activation of any hERG current. This parameter was assessed before (pre tail current amplitude) and after 600 s incubation (post tail current amplitude) in drug. In order to assess the amount of block produced by test compounds, the data was first filtered using the IonWorks™ software to exclude any cells where the seal resistance was less than 50 MOhm. The remaining data was then exported to an excel compatible data file and only currents with tail currents greater than 250 pA were analyzed. The post/pre tail current amplitude ratio for the third pulse was calculated for each drug and control, and presented as percent inhibition.

T2 sequence (Q12809 whole entry): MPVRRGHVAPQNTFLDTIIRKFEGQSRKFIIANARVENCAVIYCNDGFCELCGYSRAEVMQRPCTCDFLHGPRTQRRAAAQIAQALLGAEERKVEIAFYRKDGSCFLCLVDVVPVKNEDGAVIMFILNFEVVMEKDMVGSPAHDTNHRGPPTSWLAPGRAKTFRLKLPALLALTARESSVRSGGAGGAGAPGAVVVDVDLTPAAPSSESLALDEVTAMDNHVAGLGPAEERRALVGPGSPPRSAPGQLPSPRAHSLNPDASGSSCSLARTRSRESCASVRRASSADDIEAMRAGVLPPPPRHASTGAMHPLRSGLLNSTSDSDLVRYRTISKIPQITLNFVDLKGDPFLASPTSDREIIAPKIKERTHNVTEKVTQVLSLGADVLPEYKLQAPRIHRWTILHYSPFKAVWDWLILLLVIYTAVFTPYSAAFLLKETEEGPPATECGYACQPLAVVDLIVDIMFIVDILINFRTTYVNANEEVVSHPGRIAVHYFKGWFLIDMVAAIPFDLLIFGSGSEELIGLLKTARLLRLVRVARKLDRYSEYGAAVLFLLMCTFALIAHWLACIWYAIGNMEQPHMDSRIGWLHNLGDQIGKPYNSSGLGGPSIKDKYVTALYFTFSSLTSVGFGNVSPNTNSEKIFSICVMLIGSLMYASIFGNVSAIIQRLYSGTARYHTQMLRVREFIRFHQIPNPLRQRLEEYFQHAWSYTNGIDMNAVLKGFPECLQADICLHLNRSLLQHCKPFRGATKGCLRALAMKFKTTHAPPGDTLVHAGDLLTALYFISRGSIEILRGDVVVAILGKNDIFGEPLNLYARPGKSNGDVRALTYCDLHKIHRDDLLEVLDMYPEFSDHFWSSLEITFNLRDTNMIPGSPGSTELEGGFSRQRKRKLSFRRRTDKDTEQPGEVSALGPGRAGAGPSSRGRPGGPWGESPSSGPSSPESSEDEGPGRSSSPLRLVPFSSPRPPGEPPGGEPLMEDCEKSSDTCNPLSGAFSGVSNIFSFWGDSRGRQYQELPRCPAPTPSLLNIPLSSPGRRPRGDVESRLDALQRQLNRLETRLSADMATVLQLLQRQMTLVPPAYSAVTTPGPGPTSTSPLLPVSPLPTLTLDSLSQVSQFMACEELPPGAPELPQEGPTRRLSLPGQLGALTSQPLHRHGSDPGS

**Q.** For `C=Cc1ccc2c(c1)c(C(=O)C(=O)Nc1ccnc(OC)c1)c(C)n2Cc1ccc(Cl)cc1` [Compound 27, 2-(1-(4-chlorobenzyl)-2-methyl-5-vinyl-1H-indol-3-yl)-N-(2-methoxypyridin-4-yl)-2-oxoacetamide], which IC50 (FAAH) is on record?
**A.** Its IC50 is under 100 nM.

**Q.** Which results are given for `COc1cc(NC(=O)C(=O)c2c(C)n(Cc3ccc(Cl)cn3)c3cc(F)c(OC)cc23)ccn1` [Compound 64, 2-(1-((5-chloropyridin-2-yl)methyl)-6-fluoro-5-methoxy-2-methyl-1H-indol-3-yl)-N-(2-methoxypyridin-4-yl)-2-oxoacetamide]?
**A.** IC50 (FAAH): < 100 nM; inhibition at 600 s, 1 µM (hERG channel): < 25%; inhibition at 600 s, 10 µM (hERG channel): 25 to 50%

**Q.** Which results are given for `COc1cnc2c(c1)c(C(=O)C(=O)Nc1ccnc(OC)c1)c(C)n2Cc1ccc(Cl)cn1` [Compound 41, 2-(1-((5-chloropyridin-2-yl)methyl)-5-methoxy-2-methyl-1H-pyrrolo[2,3-b]pyridin-3-yl)-N-(2-methoxypyridin-4-yl)-2-oxoacetamide]?
**A.** IC50 (FAAH): < 100 nM; inhibition at 600 s, 1 µM (hERG channel): < 25%; inhibition at 600 s, 10 µM (hERG channel): 25 to 50%

**Q.** Which IC50 (FAAH) does the source give for `COc1cc(NC(=O)C(=O)c2c(C)n(Cc3ncc(Cl)cc3F)c3cc(Cl)c(OC)cc23)ccn1` [Compound 97, 2-(6-chloro-1-((5-chloro-3-fluoropyridin-2-yl)methyl)-5-methoxy-2-methyl-1H-indol-3-yl)-N-(2-methoxypyridin-4-yl)-2-oxoacetamide] here?
**A.** The IC50 was under 100 nM.

**Q.** What about the inhibition at 600 s, 1 µM (hERG channel) of the same compound?
**A.** The inhibition at 600 s, 1 µM was under 25%.

**Q.** And the inhibition at 600 s, 10 µM (hERG channel)?
**A.** Its inhibition at 600 s, 10 µM is under 25%.

**Q.** With `COc1ccc2c(c1)c(C(=O)C(=O)Nc1ccnc(OC)c1)c(C)n2Cc1ccc(S(C)(=O)=O)cc1` [Compound 39, 2-(5-methoxy-2-methyl-1-(4-(methylsulfonyl)benzyl)-1H-indol-3-yl)-N-(2-methoxypyridin-4-yl)-2-oxoacetamide] as the compound, how does the IC50 (FAAH) read?
**A.** Its IC50 is 1000 to 10000 nM.

**Q.** For `CNCc1ccc2c(c1)c(C(=O)C(=O)Nc1ccnc(OC)c1)c(C)n2Cc1ccc(Cl)cc1` [Compound 25, 2-(1-(4-chlorobenzyl)-2-methyl-5-((methylamino)methyl)-1H-indol-3-yl)-N-(2-methoxypyridin-4-yl)-2-oxoacetamide], which IC50 (FAAH) is on record?
**A.** The IC50 was 100 to 1000 nM.

**Q.** `COc1cc(NC(=O)C(=O)c2c(C)n(Cc3ccc(Cl)cc3)c3cnccc23)ccn1` [Compound 35, 2-(1-(4-chlorobenzyl)-2-methyl-1H-pyrrolo[2,3-c]pyridin-3-yl)-N-(2-methoxypyridin-4-yl)-2-oxoacetamide] was tested. Which IC50 (FAAH) did it give?
**A.** Its IC50 is 100 to 1000 nM.

**Q.** `COc1cc(NC(=O)C(=O)c2c(C)n(Cc3ccc(Cl)cn3)c3ccc(N(C)C)cc23)ccn1` [Compound 66, 2-(1-((5-chloropyridin-2-yl)methyl)-5-(dimethylamino)-2-methyl-1H-indol-3-yl)-N-(2-methoxypyridin-4-yl)-2-oxoacetamide] was tested. Which IC50 (FAAH) did it give?
**A.** The IC50 was under 100 nM.

**Q.** `COc1cnc2c(c1)c(C(=O)C(=O)Nc1ccnc(OC)c1)c(C)n2Cc1ncc(Cl)cc1Cl` [Compound 29, 2-(1-((3,5-dichloropyridin-2-yl)methyl)-5-methoxy-2-methyl-1H-pyrrolo[2,3-b]pyridin-3-yl)-N-(2-methoxypyridin-4-yl)-2-oxoacetamide] was tested. Which IC50 (FAAH) did it give?
**A.** The IC50 was under 100 nM.

**Q.** How did the IC50 (FAAH) turn out when `COc1cc(NC(=O)C(=O)c2c(C)n(Cc3ccc(Cl)cc3)c3ccc(OC)c(OC)c23)ccn1` [Compound 56, 2-(1-(4-chlorobenzyl)-4,5-dimethoxy-2-methyl-1H-indol-3-yl)-N-(2-methoxypyridin-4-yl)-2-oxoacetamide] was run?
**A.** Its IC50 is 100 to 1000 nM.

**Q.** How did the IC50 (FAAH) turn out when `COc1cc(NC(=O)C(=O)c2c(C)n(Cc3ccc(Cl)cc3)c3ccc(COC(C)=O)cc23)ccn1` [Compound 10, (1-(4-chlorobenzyl)-3-(2-(2-methoxypyridin-4-ylamino)-2-oxoacetyl)-2-methyl-1H-indol-5-yl)methyl acetate] was run?
**A.** The IC50 was under 100 nM.

**Q.** How did the IC50 (FAAH) turn out when `COc1ccc2c(c1)c(C(=O)C(=O)Nc1ccnc(O)c1)c(C)n2Cc1ccc(Cl)cc1` [Compound 50, 2-(1-(4-chlorobenzyl)-5-methoxy-2-methyl-1H-indol-3-yl)-N-(2-hydroxypyridin-4-yl)-2-oxoacetamide] was run?
**A.** The IC50 was 1000 to 10000 nM.

**Q.** With `COc1cc(NC(=O)C(=O)c2c(C)n(Cc3ccc(Cl)cc3)c3cc(C)c(OC)cc23)ccn1` [Compound 74, 2-(1-(4-chlorobenzyl)-5-methoxy-2,6-dimethyl-1H-indol-3-yl)-N-(2-methoxypyridin-4-yl)-2-oxoacetamide] as the compound, how does the IC50 (FAAH) read?
**A.** Its IC50 is under 100 nM.

**Q.** How did the IC50 (FAAH) turn out when `COc1cc(NC(=O)C(=O)c2c(C)n(Cc3ccc(Cl)cc3)c3ccc(CN(C)C)cc23)ccn1` [Compound 26, 2-(1-(4-chlorobenzyl)-5-((dimethylamino)methyl)-2-methyl-1H-indol-3-yl)-N-(2-methoxypyridin-4-yl)-2-oxoacetamide] was run?
**A.** The IC50 was 100 to 1000 nM.

**Q.** How did the IC50 (FAAH) turn out when `COc1cc(NC(=O)C(=O)c2c(C)n(Cc3ccc(Cl)cc3)c3ccc(CO)cc23)ccn1` [Compound 8, 2-(1-(4-chlorobenzyl)-5-(hydroxymethyl)-2-methyl-1H-indol-3-yl)-N-(2-methoxypyridin-4-yl)-2-oxoacetamide] was run?
**A.** The IC50 was under 100 nM.

**Q.** For `COc1cc(NC(=O)C(=O)c2c(C)n(Cc3ccc(Cl)cn3)c3ccc([N+](=O)[O-])cc23)ccn1` [Compound 62, 2-(1-((5-chloropyridin-2-yl)methyl)-2-methyl-5-nitro-1H-indol-3-yl)-N-(2-methoxypyridin-4-yl)-2-oxoacetamide], which IC50 (FAAH) is on record?
**A.** Its IC50 is under 100 nM.

**Q.** With `COc1cc(NC(=O)C(=O)c2c(C)n(Cc3ccc(Cl)cn3)c3ccc(N)cc23)ccn1` [Compound 65, 2-(5-amino-1-((5-chloropyridin-2-yl)methyl)-2-methyl-1H-indol-3-yl)-N-(2-methoxypyridin-4-yl)-2-oxoacetamide] as the compound, how does the IC50 (FAAH) read?
**A.** The IC50 was 100 to 1000 nM.

**Q.** With `COc1cc(NC(=O)C(=O)c2c(C)n(Cc3ccc(Cl)cn3)c3cc(C)c(OC)cc23)ccn1` [Compound 95, 2-(1-((5-chloropyridin-2-yl)methyl)-5-methoxy-2,6-dimethyl-1H-indol-3-yl)-N-(2-methoxypyridin-4-yl)-2-oxoacetamide] as the compound, how does the IC50 (FAAH) read?
**A.** The IC50 was under 100 nM.

**Q.** With `COc1cc(NC(=O)C(=O)c2c(C)n(Cc3ccc(Cl)cc3)c3ncc(C)cc23)ccn1` [Compound 76, 2-(1-(4-chlorobenzyl)-2,5-dimethyl-1H-pyrrolo[2,3-b]pyridin-3-yl)-N-(2-methoxypyridin-4-yl)-2-oxoacetamide] as the compound, how does the IC50 (FAAH) read?
**A.** The IC50 was under 100 nM.

**Q.** With `COc1cc(NC(=O)C(=O)c2c(C)n(Cc3ccc(Cl)cc3)c3ccc(OC)c(Cl)c23)ccn1` [Compound 58, 2-(4-chloro-1-(4-chlorobenzyl)-5-methoxy-2-methyl-1H-indol-3-yl)-N-(2-methoxypyridin-4-yl)-2-oxoacetamide] as the compound, how does the IC50 (FAAH) read?
**A.** The IC50 was under 100 nM.

**Q.** With `COc1cc(NC(=O)C(=O)c2c(C)n(Cc3ccc(Cl)cn3)c3ncc(C)cc23)ccn1` [Compound 75, (1-((5-chloropyridin-2-yl)methyl)-2,5-dimethyl-1H-pyrrolo[2,3-b]pyridin-3-yl)-N-(2-methoxypyridin-4-yl)-2-oxoacetamide] as the compound, how does the IC50 (FAAH) read?
**A.** Its IC50 is under 100 nM.

**Q.** With `COc1cc(NC(=O)C(=O)c2c(C)n(Cc3ccc(Cl)cc3)c3ccc(N)c(Cl)c23)ccn1` [Compound 73, 2-(5-amino-4-chloro-1-(4-chlorobenzyl)-2-methyl-1H-indol-3-yl)-N-(2-methoxypyridin-4-yl)-2-oxoacetamide] as the compound, how does the IC50 (FAAH) read?
**A.** Its IC50 is 100 to 1000 nM.

**Q.** How did the IC50 (FAAH) turn out when `CCN(CC)c1ccc2c(c1)c(C(=O)C(=O)Nc1ccnc(OC)c1)c(C)n2Cc1ccc(Cl)cc1` [Compound 24, 2-(1-(4-chlorobenzyl)-5-(diethylamino)-2-methyl-1H-indol-3-yl)-N-(2-methoxypyridin-4-yl)-2-oxoacetamide] was run?
**A.** Its IC50 is 1000 to 10000 nM.
